# Assay results as given in ChEMBL document CHEMBL4325853, “Design, synthesis and antibacterial evaluation of 2,4-disubstituted-6-thiophenyl-pyrimidines” (Eur J Med Chem, 2019).
# Columns and labels:
# Type in all cases: functional
# [1] = test system: Staphylococcus aureus; assay: Antibacterial activity against methicillin-resistant Staphylococcus aureus isolate 2931 after 18 hrs by broth microdilution method; details: isolate 2931, 18 h
# [2] = test system: Staphylococcus aureus; assay: Antibacterial activity against methicillin-resistant Staphylococcus aureus isolate 2350 after 18 hrs by broth microdilution method; details: isolate 2350, 18 h
# [3] = test system: Staphylococcus aureus; assay: Antibacterial activity against methicillin-resistant Staphylococcus aureus isolate 3123 after 18 hrs by broth microdilution method; details: isolate 3123, 18 h
# [4] = test system: Staphylococcus aureus; assay: Antibacterial activity against methicillin-resistant Staphylococcus aureus isolate 1220 after 18 hrs by broth microdilution method; details: isolate 1220, 18 h
# [5] = test system: Staphylococcus aureus; assay: Antibacterial activity against methicillin-resistant Staphylococcus aureus isolate 7916 after 18 hrs by broth microdilution method; details: isolate 7916, 18 h
# [6] = test system: Staphylococcus aureus; assay: Antibacterial activity against methicillin-resistant Staphylococcus aureus isolate 8071 after 18 hrs by broth microdilution method; details: isolate 8071, 18 h
# [7] = test system: Staphylococcus aureus; assay: Antibacterial activity against methicillin-resistant Staphylococcus aureus isolate 7807 after 18 hrs by broth microdilution method; details: isolate 7807, 18 h
# [8] = test system: Staphylococcus aureus; assay: Antibacterial activity against methicillin-resistant Staphylococcus aureus isolate 7943 after 18 hrs by broth microdilution method; details: isolate 7943, 18 h
# [9] = test system: Staphylococcus aureus; assay: Antibacterial activity against methicillin-resistant Staphylococcus aureus isolate 7971 after 18 hrs by broth microdilution method; details: isolate 7971, 18 h
# [10] = test system: Staphylococcus aureus; assay: Antibacterial activity against methicillin-resistant Staphylococcus aureus isolate 6515 after 18 hrs by broth microdilution method; details: isolate 6515, 18 h
# [11] = test system: Staphylococcus aureus; assay: Antibacterial activity against methicillin-resistant Staphylococcus aureus isolate 7863 after 18 hrs by broth microdilution method; details: isolate 7863, 18 h
# [12] = test system: Staphylococcus aureus; assay: Antibacterial activity against methicillin-resistant Staphylococcus aureus isolate 7449 after 18 hrs by broth microdilution method; details: isolate 7449, 18 h
# [13] = test system: Staphylococcus aureus; assay: Antibacterial activity against methicillin-resistant Staphylococcus aureus ATCC 33591 after 18 hrs by broth microdilution method; details: ATCC 33591, 18 h
# [14] = test system: Staphylococcus aureus; assay: Antibacterial activity against methicillin-resistant Staphylococcus aureus isolate 5056 after 18 hrs by broth microdilution method; details: isolate 5056, 18 h
# [15] = test system: Staphylococcus aureus; assay: Antibacterial activity against Staphylococcus aureus ATCC 29213 after 18 hrs by broth microdilution method; details: ATCC 29213, 18 h
# [16] = test system: Staphylococcus aureus; assay: Antibacterial activity against methicillin-resistant Staphylococcus aureus isolate 7960 after 18 hrs by broth microdilution method; details: isolate 7960, 18 h
# [17] = test system: Bacillus subtilis; assay: Antibacterial activity against Bacillus subtilis 168 after 18 hrs by broth microdilution method; details: subsp. subtilis str. 168, 18 h
# [18] = test system: Staphylococcus aureus; assay: Antibacterial activity against methicillin-resistant Staphylococcus aureus isolate 2671 after 18 hrs by broth microdilution method; details: isolate 2671, 18 h
# [19] = test system: Staphylococcus epidermidis; assay: Antibacterial activity against Staphylococcus epidermidis ATCC 12228 after 18 hrs by broth microdilution method; details: ATCC 12228, 18 h
# [20] = test system: Staphylococcus aureus; assay: Antibacterial activity against methicillin-resistant Staphylococcus aureus isolate 1428 after 18 hrs by broth microdilution method; details: isolate 1428, 18 h
# [21] = test system: Staphylococcus aureus; assay: Antibacterial activity against methicillin-resistant Staphylococcus aureus isolate 7183 after 18 hrs by broth microdilution method; details: isolate 7183, 18 h
# [22] = test system: Enterococcus faecalis; assay: Antibacterial activity against Enterococcus faecalis ATCC 29212 after 18 hrs by broth microdilution method; details: ATCC 29212, 18 h
# [23] = test system: Enterococcus faecalis; assay: Antibacterial activity against vancomycin-resistant Enterococcus faecalis ATCC 51575 after 18 hrs by broth microdilution method; details: ATCC 51575, 18 h
# [24] = test system: Staphylococcus aureus; assay: Antibacterial activity against methicillin-resistant Staphylococcus aureus isolate 4955 after 18 hrs by broth microdilution method; details: isolate 4955, 18 h
# [25] = test system: Staphylococcus aureus; assay: Antibacterial activity against methicillin-resistant Staphylococcus aureus isolate 2491 after 18 hrs by broth microdilution method; details: isolate 2491, 18 h
# [26] = test system: Staphylococcus aureus; assay: Antibacterial activity against methicillin-resistant Staphylococcus aureus isolate 7434 after 18 hrs by broth microdilution method; details: isolate 7434, 18 h
# [27] = test system: Staphylococcus aureus; assay: Antibacterial activity against methicillin-resistant Staphylococcus aureus isolate 7717 after 18 hrs by broth microdilution method; details: isolate 7717, 18 h
# [28] = test system: Staphylococcus aureus; assay: Antibacterial activity against methicillin-resistant Staphylococcus aureus ATCC 33592 after 18 hrs by broth microdilution method; details: ATCC 33592, 18 h
smiles,measurement,setting,value
CN[C@H](CC(C)C)C(=O)N[C@H]1C(=O)N[C@@H](CC(N)=O)C(=O)N[C@H]2C(=O)N[C@H]3C(=O)N[C@H](C(=O)N[C@H](C(=O)O)c4cc(O)cc(O)c4-c4cc3ccc4O)[C@H](O)c3ccc(c(Cl)c3)Oc3cc2cc(c3O[C@@H]2O[C@H](CO)[C@@H](O)[C@H](O)[C@H]2O[C@H]2C[C@](C)(N)[C@H](O)[C@H](C)O2)Oc2ccc(cc2Cl)[C@H]1O [VANCOMYCIN],MIC90,[1],1 µg/mL
same,MIC90,[2],1 µg/mL
same,MIC90,[3],1 µg/mL
same,MIC90,[4],0.5 µg/mL
same,MIC90,[5],1 µg/mL
same,MIC90,[6],1 µg/mL
same,MIC90,[7],2 µg/mL
same,MIC90,[8],2 µg/mL
same,MIC90,[9],1 µg/mL
same,MIC90,[10],1 µg/mL
same,MIC90,[11],1 µg/mL
same,MIC90,[12],1 µg/mL
same,MIC90,[13],2 µg/mL
same,MIC90,[14],2 µg/mL
same,MIC90,[15],1 µg/mL
same,MIC90,[16],2 µg/mL
same,MIC90,[17],1 µg/mL
same,MIC90,[18],1 µg/mL
same,MIC90,[19],0.5 µg/mL
same,MIC90,[20],0.5 µg/mL
same,MIC90,[21],2 µg/mL
same,MIC90,[22],> 64 µg/mL
same,MIC90,[23],> 64 µg/mL
same,MIC90,[24],1 µg/mL
same,MIC90,[25],2 µg/mL
same,MIC90,[26],1 µg/mL
same,MIC90,[27],1 µg/mL
same,MIC90,[28],2 µg/mL
